From PubChem BioAssay (NCI) come the findings set out here.

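Values below derive from 48-hour exposures of cells grown in 96-well plates, with endpoints linearly interpolated between the two concentrations bracketing the appropriate inhibition level. The concentration for 50% growth inhibition is given as GI50. TGI denotes the concentration required for complete inhibition of growth.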

What all share (test): NCI anticancer screen, dose series, 48 h
The test system of test [1] is SK-MEL-28 melanoma.
The subject of test [2] is OVCAR-4 ovarian.
Test [3] deals with HCT-15 colon.
Test [4] concerns NCI-H522 lung.
The test system of test [5] is HT29 colon.
Test [6] has as its system RPMI-8226 leukemia.
Test [7] has as its system K-562 leukemia.
The subject of test [8] is SF-295 CNS.
The test system of test [9] is SW-620 colon.
The test system of test [10] is HL-60(TB) leukemia.

For the compound `COS(=O)CCOC(=O)c1ccccc1SSc1ccccc1C(=O)OCCS(=O)OC` (stereo not given), the TGI in [1] is more than 100 µM; in test [2], 34.9 µM; in test [3] it was 85.9 µM; in test [4] it was 18.6 µM; in test [5] it was 28.8 µM; in test [6], 57.7 µM. The TGI in test [7] was 69.6 µM; in test [8], more than 100 µM; in test [9] it was 87.4 µM.

Consider `COc1ccc2c3c([nH]c2c1)[C@H]1C[C@H]2[C@H](C[C@@H](O)[C@H](OC)[C@H]2C(=O)O)CN1CC3`, for which the TGI in test [1], in test [2], in test [3], in [4], in test [5] and in test [6] was more than 100 µM each time. Besides, the TGI in test [7], in [8] and in test [9] was more than 100 µM throughout.

As to `C/C(=N\NC(=S)Nc1ccc([N+](=O)[O-])cc1S(=O)(=O)O)c1ccccn1`, the TGI in [1] is more than 100 µM; in test [2], 95.3 µM; in [3], more than 100 µM; in test [5] it was more than 100 µM; in test [6], more than 100 µM; in [10] it was 84.8 µM. Also, the TGI in [7] is more than 100 µM; in test [8], more than 100 µM; in test [9], 56.5 µM.

On to `O=C(O)c1oc2ccc([N+](=O)[O-])c3c2c1CCC3`, for which the TGI in test [1], in test [2], in test [4], in test [5], in test [10] and in test [8] was more than 100 µM each time. This compound yielded a TGI in test [9] of more than 100 µM.

Regarding `NC(=O)c1ccc(-c2c3ccccc3cc3c2ccc2ccccc23)cc1`, the GI50 in test [1] is 4.39 µM; in test [2] it was 5.79 µM; in test [3] it was 2.81 µM; in test [6], 5.6 µM; in test [10], 2.14 µM; in test [7] it was 1.5 µM. Besides, the GI50 is 5.11 µM in [8] and 2.56 µM in test [9]. In addition, the TGI in test [1] was 36 µM; in [2] it was 29.7 µM; in test [3] it was more than 100 µM; in [6], 40.7 µM; in test [10], more than 100 µM; in test [7], more than 100 µM. The figures for the TGI in test [8] and in test [9] were 31 µM and 19.7 µM, respectively.

Regarding `CCCC/C(C)=N/NC(N)=S`, the TGI in test [1], in test [3], in test [4], in test [5], in test [6] and in test [10] was more than 100 µM in each case. Moreover, the TGI in test [7], in test [8] and in test [9] was more than 100 µM throughout.

On to `C/C(=N\n1c(N)c(C#N)c(-c2ccc(Cl)cc2)c(C#N)c1=O)c1cccnc1`, for which the GI50 in test [1], in [2], in test [3], in [5], in test [6] and in [7] was more than 100 µM in each case. The GI50 in test [8] and in test [9] was more than 100 µM each time. Moreover, the TGI in test [1], in test [2], in test [3], in test [5], in test [6] and in test [7] was more than 100 µM throughout. For the same compound, the TGI in test [8] and in test [9] was more than 100 µM throughout.

With `COc1ccccc1OCC(COC(=O)Nc1ccc(C)cc1)OC(=O)Nc1ccc(C)cc1` (stereo not given), the TGI in [1] came out at 60.8 µM; in test [3], 29.9 µM; in [4], 31.5 µM; in test [5], 38.3 µM; in test [6], 38.8 µM; in test [10], 37.4 µM. Moreover, the TGI in test [7] is 45.5 µM; in test [8], 49 µM; in test [9] it was 28.1 µM.

Consider `CC(=O)Nc1[nH]c(=O)[nH]c(=O)c1N(C(C)=O)C(C)=O`, for which the TGI in test [1], in test [2], in test [3], in test [5], in [6] and in test [10] was more than 100 µM each time. The TGI in test [7], in [8] and in [9] was more than 100 µM in each case.

In the case of `COCCn1cc(-c2csc(-c3c[nH]c4ccc(F)cc34)n2)c2cccnc21`, the GI50 is 7.73 µM in test [1]; 2.59 µM in [2]; 2.35 µM in test [3]; 2.19 µM in [4]; 2.9 µM in test [5]; 2.12 µM in test [7]. For the same compound, the figures for the GI50 in test [8] and in test [9] were 3.2 µM and 3.63 µM, respectively. Also, the TGI in [1], in [2], in [3], in [4], in [5] and in test [7] was more than 100 µM throughout. Further, the TGI in test [8] and in [9] was more than 100 µM throughout.

For `NC(=O)c1ccc(NC(=O)c2oc3ccccc3c2-c2cnn(-c3ccccc3)c2)cc1`, the GI50 was more than 100 µM in test [1]; more than 100 µM in [4]; more than 100 µM in test [10]; more than 100 µM in test [7]; more than 35.5 µM in test [8]; more than 100 µM in test [9]. Further, the TGI in [1], in test [4], in [10], in test [7], in [8] and in test [9] was more than 100 µM throughout.

As to `CN(C)c1ccc(/C=N/Nc2ccc(-c3nc4ccccc4[nH]3)cc2)cc1`, the GI50 was 6.73 µM in test [3]; 10.3 µM in test [4]; 4.6 µM in test [6]; 14.6 µM in test [10]; 2.86 µM in [7]; 3.19 µM in test [8]. The GI50 in test [9] was 18.9 µM. Moreover, the TGI in [3] is 35.7 µM; in test [4], 31.2 µM; in test [6], more than 50 µM; in [10], more than 50 µM; in test [7] it was 16.3 µM; in test [8], more than 50 µM. The compound further had a TGI in [9] of more than 50 µM.
